Source: patent publication US20240343717A1, “MICROBIOCIDAL PYRAZOLE DERIVATIVES” (SYNGENTA CROP PROTECTION AG, priority 2021, published 2024)

What was measured:
[1] = tested on: Botryotinia fuckeliana (Botrytis cinerea); assay: Botryotinia fuckeliana (Botrytis cinerea) / liquid culture (gray mould); assay type: cell-based; conditions: growth inhibition photometrically 3-4 days after application, read-out: control of Botryotinia fuckeliana
Experimental: Example B2: Botryotinia fuckeliana (Botrytis cinerea)/Liquid Culture (Gray Mould) Conidia of the fungus from cryogenic storage are directly mixed into nutrient broth (Vogels broth). After placing a (DMSO) solution of test compound into a microtiter plate (96-well format), the nutrient broth containing the fungal spores is added. The test plates are incubated at 24° C. and the inhibition of growth is determined photometrically 3-4 days after application.

[2] = tested on: Mycosphaerella graminicola (Septoria tritici); assay: Mycosphaerella graminicola (Septoria tritici) / liquid culture (Septoria blotch); assay type: cell-based; conditions: Zymoseptoria tritici, growth inhibition photometrically 4-5 days after application, read-out: control of Mycosphaerella graminicola
Experimental: Example B16: Mycosphaerella graminicola (Septoria tritici)/Liquid Culture (Septoria Blotch) Conidia of the fungus from cryogenic storage are directly mixed into nutrient broth (PDB potato dextrose broth). After placing a (DMSO) solution of test compound into a microtiter plate (96-well format), the nutrient broth containing the fungal spores is added. The test plates are incubated at 24° C. and the inhibition of growth is determined photometrically 4-5 days after application.

[3] = tested on: Monographella nivalis (Microdochium nivale); assay: Monographella nivalis (Microdochium nivale) / liquid culture (foot rot cereals); assay type: cell-based; conditions: growth inhibition photometrically 4-5 days after application, read-out: control of Monographella nivalis
Experimental: Example B9: Monographella nivalis (Microdochium nivale)/Liquid Culture (Foot Rot Cereals) Conidia of the fungus from cryogenic storage are directly mixed into nutrient broth (PDB potato dextrose broth). After placing a (DMSO) solution of test compound into a microtiter plate (96-well format), the nutrient broth containing the fungal spores is added. The test plates are incubated at 24° C. and the inhibition of growth is determined photometrically 4-5 days after application.

[4] = tested on: Glomerella lagenarium (Colletotrichum lagenarium); assay: Glomerella lagenarium (Colletotrichum lagenarium) / liquid culture (anthracnose); assay type: cell-based; conditions: Colletotrichum orbiculare, growth inhibition photometrically 3-4 days after application, read-out: control of Glomerella lagenarium
Experimental: Example B3: Glomerella lagenarium (Colletotrichum lagenarium)/Liquid Culture (Anthracnose) Conidia of the fungus from cryogenic storage are directly mixed into nutrient broth (PDB potato dextrose broth). After placing a (DMSO) solution of test compound into a microtiter plate (96-well format), the nutrient broth containing the fungal spores is added. The test plates are incubated at 24° C. and the inhibition of growth is measured photometrically 3-4 days after application.

[5] = tested on: Mycosphaerella arachidis (Cercospora arachidicola); assay: Mycosphaerella arachidis (Cercospora arachidicola) / liquid culture (early leaf spot); assay type: cell-based; conditions: growth inhibition photometrically 4-5 days after application, read-out: control of Mycosphaerella arachidis
Experimental: Example B10: Mycosphaerella arachidis (Cercospora arachidicola)/Liquid Culture (Early Leaf Spot) Conidia of the fungus from cryogenic storage are directly mixed into nutrient broth (PDB potato dextrose broth). After placing a (DMSO) solution of test compound into a microtiter plate (96-well format), the nutrient broth containing the fungal spores is added. The test plates are incubated at 24° C. and the inhibition of growth is determined photometrically 4-5 days after application.

Pyrenophora teres = Pyrenophora teres / barley / leaf disc preventative (net blotch); assay type: in vivo; conditions: foliar, barley leaf segments, inoculated 2 days after application
Experimental: Example B14: Pyrenophora teres/Barley/Leaf Disc Preventative (Net Blotch) Barley leaf segments cv. Hasso are placed on agar in a multiwell plate (24-well format) and sprayed with the formulated test compound diluted in water. The leaf segments are inoculated with a spore suspension of the fungus 2 days after application. The inoculated leaf segments are incubated at 20° C. and 65% rh under a light regime of 12 h light/12 h darkness in a climate cabinet and the activity of a compound is assessed as disease control compared to untreated when an appropriate level of disease damage appears in untreated check leaf segments (5-7 days after application).

Alternaria solani = Alternaria solani / tomato / leaf disc (early blight); assay type: in vivo; conditions: foliar, tomato leaf disks, sprayed 2 days before inoculation, compared to untreated control
Experimental: Example B1: Alternaria solani/Tomato/Leaf Disc (Early Blight) Tomato leaf disks cv. Baby are placed on agar in multiwell plates (24-well format) and sprayed with the formulated test compound diluted in water. The leaf disks are inoculated with a spore suspension of the fungus 2 days after application. The inoculated leaf disks are incubated at 23° C./21° C.

COC(=O)c1ccc(C(C)(CNC(=O)c2cc(-c3ccc(F)cc3F)on2)c2cnn(C)c2)nc1 (stereo not drawn) [Compound P-55, methyl 6-[2-[[5-(2,4-difluorophenyl)isoxazole-3-carbonyl]amino]-1-methyl-1-(1-methylpyrazol-4-yl)ethyl]pyridine-3-carboxylate]
≥ 80%: inhibition of growth at 20 ppm [1] | inhibition of growth at 20 ppm [2] | inhibition of growth at 20 ppm [3] | inhibition of growth at 20 ppm [4]

Cn1cc(C(C)(CNC(=O)c2cc(C3CC3)on2)c2cccc(Cl)n2)cn1 (stereo not drawn) [Compound P-78, N-[2-(6-chloro-2-pyridyl)-2-(1-methylpyrazol-4-yl)propyl]-5-cyclopropyl-isoxazole-3-carboxamide]
≥ 80%: inhibition of growth at 20 ppm [5] | inhibition of growth at 20 ppm [2] | inhibition of growth at 20 ppm [3]

CC(=O)Nc1cccc(C(C)(CNC(=O)c2cc(-c3ccc(F)cc3F)on2)c2cnn(C)c2)n1 (stereo not drawn) [Compound P-52, N-[2-(6-acetamido-2-pyridyl)-2-(1-methylpyrazol-4-yl)propyl]-5-(2,4-difluorophenyl) isoxazole-3-carboxamide]
≥ 80%: pest or weed control at 200 ppm (Pyrenophora teres)

Cn1cc(C(C)(CNC(=O)c2cc(C3CCCCC3)on2)c2cccc(Cl)n2)cn1 (stereo not drawn) [Compound P-79, N-[2-(6-chloro-2-pyridyl)-2-(1-methylpyrazol-4-yl)propyl]-5-cyclohexyl-isoxazole-3-carboxamide]
≥ 80%: pest or weed control at 200 ppm (Pyrenophora teres) | inhibition of growth at 20 ppm [5] | inhibition of growth at 20 ppm [2] | inhibition of growth at 20 ppm [3] | inhibition of growth at 20 ppm [4]

C=C(C)COc1cc(Cl)nc(C(C)(CNC(=O)c2cc(-c3ccc(F)cc3F)on2)c2cnn(C)c2)c1 (stereo not drawn) [Compound P-68, N-[2-[6-chloro-4-(2-methylallyloxy)-2-pyridyl]-2-(1-methylpyrazol-4-yl)propyl]-5-(2,4-difluorophenyl) isoxazole-3-carboxamide]
≥ 80%: inhibition of growth at 20 ppm [1] | inhibition of growth at 20 ppm [5] | inhibition of growth at 20 ppm [2] | inhibition of growth at 20 ppm [3] | inhibition of growth at 20 ppm [4]

Cn1cc(C(C)(CNC(=O)c2cc(-c3ccc(F)cc3F)on2)c2ccncn2)cn1 (stereo not drawn) [Compound P-23, 5-(2,4-difluorophenyl)-N-[2-(1-methylpyrazol-4-yl)-2-pyrimidin-4-yl-propyl]isoxazole-3-carboxamide]
≥ 80%: pest or weed control at 200 ppm (Pyrenophora teres) | pest or weed control at 200 ppm (Alternaria solani)

Cn1cc(C(C)(CNC(=O)c2cc(-c3ccc(F)cc3F)on2)c2ncccc2Br)cn1 (stereo not drawn) [Compound P-53, N-[2-(3-bromo-2-pyridyl)-2-(1-methylpyrazol-4-yl)propyl]-5-(2,4-difluorophenyl) isoxazole-3-carboxamide]
≥ 80%: pest or weed control at 200 ppm (Pyrenophora teres) | inhibition of growth at 20 ppm [3]

COc1ccc(C(C)(CNC(=O)c2cc(-c3ccc(F)cc3F)on2)c2cnn(C)c2)nn1 (stereo not drawn) [Compound P-105, 5-(2,4-difluorophenyl)-N-[2-(6-methoxypyridazin-3-yl)-2-(1-methylpyrazol-4-yl)propyl] isoxazole-3-carboxamide]
≥ 80%: pest or weed control at 200 ppm (Pyrenophora teres) | pest or weed control at 200 ppm (Alternaria solani)

COc1ccnc(C(C)(CNC(=O)c2cc(-c3ccc(F)cc3F)on2)c2cnn(C)c2)c1 (stereo not drawn) [Compound P-7, 5-(2,4-difluorophenyl)-N-[2-(4-methoxy-2-pyridyl)-2-(1-methylpyrazol-4-yl)propyl]isoxazole-3-carboxamide]
≥ 80%: inhibition of growth at 20 ppm [2] | inhibition of growth at 20 ppm [3] | pest or weed control at 200 ppm (Alternaria solani) | inhibition of growth at 20 ppm [4]

Cn1ncc(C(CNC(=O)c2cc(-c3ccc(F)cc3F)on2)c2cccc(C#N)n2)c1Cl (stereo not drawn) [Compound P-117]
≥ 80%: inhibition of growth at 20 ppm [1] | inhibition of growth at 20 ppm [5] | inhibition of growth at 20 ppm [2] | inhibition of growth at 20 ppm [3] | inhibition of growth at 20 ppm [4]

CNC(=O)c1cccc(C(C)(CNC(=O)c2cc(-c3ccc(F)cc3F)on2)c2cnn(C)c2)n1 (stereo not drawn) [Compound P-45, 5-(2,4-difluorophenyl)-N-[2-[6-(methylcarbamoyl)-2-pyridyl]-2-(1-methylpyrazol-4-lyl)propyl]isoxazole-3-carboxamide]
≥ 80%: pest or weed control at 200 ppm (Pyrenophora teres)

Cn1cc(C(C)(CNC(=O)c2nnc(-c3ccc(F)cc3F)s2)c2ccc(Cl)cn2)cn1 (stereo not drawn) [Compound P-17, N-[2-(5-chloro-2-pyridyl)-2-(1-methylpyrazol-4-yl)propyl]-5-(2,4-difluorophenyl)-1,3,4-thiadiazole-2-carboxamide]
≥ 80%: inhibition of growth at 20 ppm [5] | inhibition of growth at 20 ppm [2] | inhibition of growth at 20 ppm [3] | inhibition of growth at 20 ppm [4]

CNC(=O)c1ccc(C(C)(CNC(=O)c2cc(-c3ccc(F)cc3F)on2)c2cnn(C)c2)nc1 (stereo not drawn) [Compound P-56, 5-(2,4-difluorophenyl)-N-[2-[5-(methylcarbamoyl)-2-pyridyl]-2-(1-methylpyrazol-4-yl)propyl]isoxazole-3-carboxamide]
≥ 80%: pest or weed control at 200 ppm (Pyrenophora teres)

Cn1cc(C(C)(CNC(=O)c2cc(-c3ccc(F)cc3F)on2)c2cccc(N)n2)cn1 (stereo not drawn) [Compound P-50, N-[2-(6-amino-2-pyridyl)-2-(1-methylpyrazol-4-yl)propyl]-5-(2,4-difluorophenyl) isoxazole-3-carboxamide]
≥ 80%: inhibition of growth at 20 ppm [1] | pest or weed control at 200 ppm (Pyrenophora teres) | inhibition of growth at 20 ppm [5] | inhibition of growth at 20 ppm [2] | inhibition of growth at 20 ppm [3] | inhibition of growth at 20 ppm [4]

Cn1cc(C(C)(CNC(=O)c2cc(-c3ccc(Cl)cc3Cl)on2)c2cccc(Cl)n2)cn1 (stereo not drawn) [Compound P-28]
≥ 80%: inhibition of growth at 20 ppm [2] | inhibition of growth at 20 ppm [3] | inhibition of growth at 20 ppm [4]

Cn1cc(C(C)(CNC(=O)c2cc(-c3ccc(F)cc3F)on2)c2ncccc2Cl)cn1 (stereo not drawn) [Compound P-2, N-[2-(3-chloro-2-pyridyl)-2-(1-methylpyrazol-4-yl)propyl]-5-(2,4-difluorophenyl) isoxazole-3-carboxamide]
≥ 80%: inhibition of growth at 20 ppm [1] | pest or weed control at 200 ppm (Pyrenophora teres) | inhibition of growth at 20 ppm [2] | inhibition of growth at 20 ppm [3]

CCS(=O)(=O)c1cccc(C(C)(CNC(=O)c2nnc(-c3ccc(F)cc3F)s2)c2cnn(C)c2)n1 (stereo not drawn) [Compound P-3, 5-(2,4-difluorophenyl)-N-[2-(6-ethylsulfonyl-2-pyridyl)-2-(1-methylpyrazol-4-yl)propyl]-1,3,4-thiadiazole-2-carboxamide]
≥ 80%: pest or weed control at 200 ppm (Pyrenophora teres)

Cn1cc(C(C)(CNC(=O)c2cc(-c3ccc(F)cc3F)on2)c2ccc(Cl)cn2)cn1 (stereo not drawn) [Compound P-20, N-[2-(5-chloro-2-pyridyl)-2-(1-methylpyrazol-4-yl)propyl]-5-(2,4-difluorophenyl) isoxazole-3-carboxamide]
≥ 80%: pest or weed control at 200 ppm (Pyrenophora teres) | inhibition of growth at 20 ppm [2] | inhibition of growth at 20 ppm [3] | inhibition of growth at 20 ppm [4]
